Data on four molecules can be found in PMC12376627 (2025).

Structures are written as SMILES.

For experiment [1], the system named is Serotonin aptamer (DNA, aptamer) CGACTGGTAGGCAGATAGGGGAAGCTGATTCGATGCGTGGGTCG
In words: SPR. (In general: SPR reads the build-up and loss of mass on a sensor chip optically.)

Experiment [2] has as its system Serotonin pH-sensitive aptamer (DNA, aptamer) CGACTGGTAGGCAGATAGGGGAAGCTGATTCGATGCGTGGGTCGTTTCGACCTTTCCAGC
In words: CNT FET. The following applies: 10 nM target; released at acidic pH.

The subject of experiment [3] is Dopamine aptamer (DNA, aptamer) CGACGCCAGTTTGAAGGTTCGTTCGCAGGTGTGGAGTGACGTCG
In words: CNT FET sensor array. The following applies: PC12 culture medium; highest concentration tested 10 nM.

The test system of experiment [4] is Histamine aptamer (DNA, aptamer) AGCTCCAGAAGATAAATTACAGGGAACGTGTTGGTTGCGGTTCTTCCGATCTGCTGTGTTCTCTATCTGTGCCATGCAACTAGGATACTATGACCCCGG
In words: CNT FET sensor array. As to conditions: PC12 culture medium; highest concentration tested 10 nM.

For experiment [5], the system named is Glutamate aptamer (DNA, aptamer) GCATCAGTCCACTCGTGAGGTCGACTGATGAGGCTCGAT
In words: CNT FET sensor array. The following applies: PC12 culture medium; highest concentration tested 10 nM.

Experiment [6] relates to Serotonin aptamer (DNA, aptamer) CGACTGGTAGGCAGATAGGGGAAGCTGATTCGATGCGTGGGTCG
In words: CNT FET sensor array. The following applies: PC12 culture medium; highest concentration tested 10 nM.

For experiment [7], the system named is Histamine pH-sensitive aptamer (DNA, aptamer) AGCTCCAGAAGATAAATTACAGGGAACGTGTTGGTTGCGGTTCTTCCGATCTGCTGTGTTCTCTATCTGTGCCATGCAACTAGGATACTATGACCCCGGTTTCCGGGGTTTTTGGGGCC
In words: CNT FET. The following applies: 10 nM target; released at acidic pH.

In experiment [8] the test system is Histamine aptamer (DNA, aptamer) AGCTCCAGAAGATAAATTACAGGGAACGTGTTGGTTGCGGTTCTTCCGATCTGCTGTGTTCTCTATCTGTGCCATGCAACTAGGATACTATGACCCCGG
In words: SPR.

For experiment [9], the system named is Dopamine aptamer (DNA, aptamer) CGACGCCAGTTTGAAGGTTCGTTCGCAGGTGTGGAGTGACGTCG
In words: SPR.

The subject of experiment [10] is Dopamine pH-sensitive aptamer (DNA, aptamer) CGACGCCAGTTTGAAGGTTCGTTCGCAGGTGTGGAGTGACGTCGTTTCGACGCTTTAGCAGC
In words: CNT FET. The following applies: 0.1x PBS (1x: 137 mM NaCl, 2.7 mM KCl); pH 7.4; 10 nM dopamine; released at acidic pH.

For experiment [11], the system named is Glutamate aptamer (DNA, aptamer) GCATCAGTCCACTCGTGAGGTCGACTGATGAGGCTCGAT
In words: SPR.

In experiment [12] the test system is Glutamate pH-sensitive aptamer (DNA, aptamer) GCATCAGTCCACTCGTGAGGTCGACTGATGAGGCTCGATTTTATCGATTTAGCTA
In words: CNT FET. The following applies: 10 nM target; released at acidic pH.

A word on the Kd: it is the equilibrium constant for the complex coming apart. Read a high Kd as a looser complex. In [1], `NCCc1c[nH]c2ccc(O)cc12` gave a Kd of 10.5 nM. Also, the binding entry was “yes” in experiment [2], “no” in [3], “no” in experiment [4] and “no” in experiment [5].
`NCCc1c[nH]cn1`: the binding result was “no” in [6], “no” in [3], “no” in experiment [5] and “yes” in experiment [7]. In [8], this molecule returned a Kd of 15 nM.
Regarding `NCCc1ccc(O)c(O)c1`, the binding result in experiment [6] is “no”; in [4] it was “no”; in experiment [5] it was “no”; in experiment [10] it was “yes”. Moreover, the Kd in [9] turned out to be 20 nM.
Turning to `N[C@@H](CCC(=O)O)C(=O)O`, the binding entry is reported as “no” in experiment [6], “no” in experiment [3], “no” in experiment [4] and “yes” in experiment [12]. This molecule showed a Kd in experiment [11] of 293 nM.
